Measured values as given in PubChem BioAssay AID179 (DTP/NCI, 2004).
Calls of active or inactive are those of the source.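 Rule for the calls: active = compounds giving half or more protection of infected cells from virus-caused growth loss, again on retest; inactive = the rest.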 Where a SMILES comes first, the peptide text is derived from it.

Tested on: CEM cells HIV-1 protection, formazan growth assay
Experiment: NCI AIDS Antiviral Assay
Details: for IC50: measured here: growth of uninfected CEM cells
How it was run: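 CEM (human) cells, HIV-1 infected vs uninfected, 5-point dosing, formazan growth read-out. Retest threshold 50% protection.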

Structure (SMILES)	EC50 [µM]	IC50 [µM]	outcome
O=c1cnn(C2OC(CO)C(O)C(F)C2O)c(=O)[nH]1 (centres undefined)	> 200	> 200	
N#Cc1nc(C(=O)c2ccccc2)oc1N	> 200	> 200	
CN(C)C(=O)N1N[C@H](c2ccccc2)[C@@H]1c1ccccc1	> 200	135	
C(CCCCc1nnc(N2CCCCC2)o1)CCCc1nnc(N2CCCCC2)o1	> 200	> 200	
CCOC(=O)Nc1cc2nnc(-c3ccccc3)nc2c(N)n1			inactive
NC1=NC2=c3ccccc3=C(c3cnccn3)C2(c2cnccn2)c2ccccc21 (centres undefined)	> 93.3	70.8	
O=c1cc(CC(O)(C(F)(F)Cl)C(F)(F)Cl)[nH]n1-c1ccccc1	> 200	117	
CN(C)c1ccc(/C=C(\C#N)c2ccc(F)cc2F)cc1	> 200	1.2	
C[C@H]1SC(c2ccc(Cl)cc2Cl)N(NC(=O)c2ccncc2)C1=O (some centres undefined)	> 200	33.9	
CCCCOC(=O)C1OC12CCCCC2 (centres undefined)	> 200	151	
C=C1CN(S(=O)(=O)c2ccc(C)cc2)CCCN(CC2CC=CCC2)CCCN(S(=O)(=O)c2ccc(C)cc2)C1 (centres undefined)	> 200	1.29	
CC(C)C1=C[C@H](c2ccccc2)c2ccccc2C1C(C#N)(C#N)C(C)C (some centres undefined)	> 1.48	> 1.48	
COc1ccc(N2CCN(c3ccc4c(c3)NCC(=O)N4)CC2)cc1	> 200	45.7	
Cc1ccc2c(c1)C(=S)N1CSCC1c1nncn1-2 (centres undefined)	> 200	> 200	
O=C1NC2C3CC(OCc4ccccc4)(OCc4ccccc4)C2OC3O1 (centres undefined)	> 97.7	> 97.7	
COc1cc2c(cc1O)[C@@H]1Cc3c(cc(OC)c(OC)c3Oc3cc4c(cc3OC)CCN(C)[C@@H]4Cc3ccc(O)cc3)[C@H](C2)N1C	> 200	15.5	
COc1ccc(/C=C2\N=C3N(Cc4ccccc4)C=C(N)N3C2=O)cc1	> 200	> 200	
Cc1ccc(S(=O)(=O)N(CC(=O)O)c2ccccc2)cc1			inactive
CCN(CC)CCOC(=O)OCCCCOC(=O)OCCN(CC)CC	> 200	> 200	
N#CC1C(C#N)C2CC1C1N=NN(c3ccccc3)C21 (centres undefined)	> 200	> 200	
CC1(C)CCC(Sc2ccccc2)O1 (centres undefined)			inactive
COc1ccc(CN2CC(C)N(N=Cc3c4c(O)c5c(O)c(C)c6c(c5c3O)C(=O)C(C)(O/C=C/C(OC)C(C)C(OC(C)=O)C(C)C(O)C(C)C(O)C(C)/C=C/C=C(\C)C(=O)N4)O6)C(C)C2)cc1 (centres undefined)	> 200	9.12	

Structure (SMILES)	EC50 [µM]	IC50 [µM]	outcome
C[N+](C)([O-])CCCNc1ccnc2cccc([N+](=O)[O-])c12	> 200	27.5	
O=C(OCC(Cl)(Cl)Cl)O[C@@H]1CCCC1(c1ccccc1)c1ccccc1	> 135	49	
COc1cc(/C=C2\CCOC2=O)ccc1OCc1ccccc1	> 32.4	> 32.4	
CN(C)/N=C(/CC(O)(C(F)(F)F)C(F)(F)F)c1ccc([N+](=O)[O-])cc1	> 200	31.6	
CCOP(=O)(Nc1ccc(-c2ccccc2)cc1)OCC	> 200	52.5	
CC(C)(C)SSC(C)(C)C	> 200	> 200	
CC(=Nc1ccc(Cl)c(Cl)c1)c1ccncc1			inactive
CCCCCCCCCCNCCSSCCNC(C)=O	> 200	5.37	
COc1cc(C2C=C(c3ccccc3)Oc3cc4c(cc32)OCO4)cc(OC)c1OC (centres undefined)	> 2	0.631	
CC(=O)Oc1cc(Cl)c(C)c2c1[C@H]1CC[C@]3(C)[C@@H](OC(C)=O)CC[C@H]3[C@@H]1CC2	> 126	> 126	
O=C1CCCc2cc3c(cc21)CC1(C3)Cc2ccc3c(c2C1)C(=O)CCC3 (centres undefined)	> 200	16.2	
COC(=O)c1cc2ccccc2c2nc3ccccc3c(Cl)c12	> 8.13	> 8.13	
Cc1cc(Cc2c(F)c(F)c(C(c3cc(C)no3)c3c(F)c(F)c(F)c(F)c3F)c(F)c2F)on1 (centres undefined)	> 200	3.39	
CO[C@@H]1C2OC(C)(C)OC2O[C@@H]1C1OC[C@H]2O[C@@H](n3ccc(=O)[nH]c3=O)C(O)[C@H]2N1O (some centres undefined)	> 200	148	
NC1=NS(=O)(=O)Nc2nc(-c3ccccc3)c(-c3ccccc3)nc21	> 355	182	
CCOC(=O)c1cn2c(n1)sc1cccc(C)c12	> 200	> 200	
CCOC(=O)C(C)(C)/C=C\C(Cl)=C(Cl)Cl	> 200	117	
COC(=O)/C(=C/c1ccc(OC)cc1)C(C(=O)O)=C1CCCCC1	> 398	5.62	
CCOC(=O)CN1CCC2CC1c1c([nH]c3ccccc13)C21OCCO1 (centres undefined)	> 200	> 200	
COCN1C(=O)[C@@H]2CCCN2C(=O)c2ccc(N)cc21	> 200	> 200	
Nn1c(CCCCCCCCc2nnc(COc3c(O)ccc4ccccc34)n2N)nnc1COc1c(O)ccc2ccccc12	> 200	170	
O=c1[nH]c(-c2ccc(-c3nc4cc([N+](=O)[O-])ccc4c(=O)[nH]3)cc2)nc2cc([N+](=O)[O-])ccc12	> 7.94	> 7.94	

Structure (SMILES)	EC50 [µM]	IC50 [µM]	outcome
Cc1no[n+]([O-])c1/C=N/NS(=O)(=O)c1ccccc1	> 891	407	
CCCCCCCCCCCCCCCC(=O)Nc1ccn(C2CCC(COP(=O)(O)O)O2)c(=O)n1 (centres undefined)	1.58	50.1	
Cc1ccnc(NS(=O)(=O)c2ccc(NC3=CC(=O)C(=O)c4ccccc43)cc2)n1			inactive
CC(C)CC(NC(=O)c1ccccc1SC(=O)CCCC[n+]1ccccc1)C(N)=O (centres undefined)	1.74	4.07	
CCN(CC)[Se]c1ccccc1			inactive
N#Cc1c(C[n+]2ccccc2)c2ccccc2oc1=O	617	646	
O=C1C(=O)c2ccccc2C(O)=C1C(C1=C(O)c2ccccc2C(=O)C1=O)c1ccc(Cl)cc1Cl	> 200	16.2	
N#CC1(C#N)C2=C(CCCC2)NC(c2ccc(Br)cc2)C1(C#N)C#N (centres undefined)	> 0.2	0.0813	
COc1ccc2c(c1)CCN1CCCc3ccc(OC)cc3C21 (centres undefined)	> 200	51.3	
CSC(=Nc1ccc(Br)cc1)NC(=O)c1cc([N+](=O)[O-])cc([N+](=O)[O-])c1	> 200	34.7	
O=S(=O)(O)CN(CS(=O)(=O)O)c1nc(N(CS(=O)(=O)O)CS(=O)(=O)O)nc(N(CS(=O)(=O)O)CS(=O)(=O)O)n1	> 100	15.5	
Cc1ccc(/C=C(\C#N)c2ccccc2)cc1	> 229	> 229	
C=CCC1C(=O)CC2(C)CC(=O)C(CC=C)C12C (centres undefined)			inactive
N#Cc1c(-c2ccc(Cl)c(Cl)c2)c(-c2ccc(Cl)c(Cl)c2)nn(CCO)c1=O	> 41.7	0.759	
Cn1c(CCN=C(N)CSS(=O)(=O)O)nc2ccccc21	> 200	174	
CN(C)c1ccc(/C=C/C(=O)[O-])cc1.CN(C)c1ccc(/C=C/C(=O)[O-])cc1.[Cu+2]	> 8.51	> 8.51	
Nc1ccn(C2CC(F)C(CO)S2)c(=O)n1 (centres undefined)	> 25.1	> 25.1	
CC(=O)OC1C(CN2CCOC2=O)OC(n2ccc(=O)[nH]c2=O)C1OC(C)=O (centres undefined)	> 200	> 200	
CC(=O)C(=O)N1Cc2cc3ccccc3nc2C1	> 708	257	
CCC(=O)NC(OCC1(CC)COC1)(C(F)(F)F)C(F)(F)F	> 200	> 200	
O=C(/C=C/c1ccccc1O)c1ccccc1	> 60.3	> 60.3	
C/C(=N/NC(=S)NCCc1ccccn1)c1cnccn1	> 200	8.71	

Structure (SMILES)	EC50 [µM]	IC50 [µM]	outcome
O=C(O)C[C@@H]1[C@@H](O)[C@@H](O)CN2C(=O)c3ccccc3[C@H]12	> 200	> 200	
COc1cc(C2SC(N)=Nc3c2c(C)nn3C(=O)c2ccccc2O)ccc1O (centres undefined)	> 2	0.0977	
CCNC(CCCC(NCC)P(=O)(O)O)P(=O)(O)O (centres undefined)			inactive
CN(C)c1nc2n(CCO)c(-c3ccccc3)c(-c3ccccc3)nc-2c(=O)n1	30.9	> 100	
Cc1cc(N(C)C)c(C=O)c(C)c1C=O	> 1230	93.3	
CCOC(=O)c1sc2c(C(=O)OCC)n3cc(C)cc(C)c3c2c1O			inactive
CCC[CH2][Sn]1([CH2]CCC)[O]CC(CN2CCOCC2)[O]1 (centres undefined)	> 4.57	0.295	
CCn1c(N)c(N=O)c(=O)n(C)c1=O	> 200	> 200	
c1ccc(NNN2NC(c3ccccc3)C2c2ccccc2)cc1 (centres undefined)	> 200	> 200	
CC12CC(=O)CC1(C)CC(=O)C2 (centres undefined)	> 537	> 537	
O=C(N=Nc1ccc(Cl)cc1Cl)NNc1ccc(Cl)cc1Cl	> 200	57.5	
COC(=O)C(c1ccc(OC)cc1)N1C(=O)[C@@H](NC(=O)c2ccccc2)[C@H]1[C@@H](C)O (some centres undefined)	> 200	> 200	
CCCCN1C(CO)C(O)C(O)C(O)C1CO (centres undefined)	> 200	> 200	
C/C=C(\CCCCN1C(=O)CCC1O)[Si](C)(C)C (centres undefined)			inactive
CCCN(CCC)CCc1ccc(OC2=CCN(C)CC2)cc1	> 200	87.1	
COCc1cc2c(cc1/C=C/[N+](=O)[O-])OCO2	> 200	2.95	
CC(C)C1OC2(C)OC(=N)C1(C#N)C(C#N)(C#N)C2C (centres undefined)	> 200	12	
CC1=C2CN(C(=O)OCC(C)C)CCC2C2=C(C(=O)c3ccccc3C2=O)C1C (centres undefined)	> 100	> 100	
CCC(C)C(NC(=O)C(CC(C)C)NC(=O)C(N)Cc1c[nH]c2ccccc12)C(=O)NC(Cc1c[nH]c2ccccc12)C(=O)O (centres undefined) (H-WLIW-OH; configuration not given here)	> 407	> 407	
CC(=O)/C(=C(/Br)I)c1ccccc1			inactive
Oc1ccc(C2(c3ccc(O)cc3)CCCC2)cc1	> 200	30.9	
COc1ccc2c(CCNC(=O)/C=C/c3ccccc3)c(C(C)=O)[nH]c2c1[N+](=O)[O-]			inactive
